According to DBAASP:
Values after ≈ are worked out from the molar mass of the structure shown.

Legend:
Experiment in all cases: ≥ marks a high value that may be exact or a test limit, other limits are often not marked, values filed in µg/mL are converted to µM
Staphylococcus aureus = system: Staphylococcus aureus
[1] = system: Trypanosoma brucei brucei GUT Tat3.1
[2] = system: Staphylococcus aureus KO-4
Escherichia coli JM109 = system: Escherichia coli JM109
[3] = system: Trichophyton mentagrophytes IFO 5466
[4] = system: Staphylococcus aureus ATCC 6538P
Pseudomonas aeruginosa = system: Pseudomonas aeruginosa
[5] = system: Vibrio metschnikovii NCTC 8483
[6] = system: Salmonella enterica subsp. enterica serovar Newport
Candida sp. = system: Candida sp.
[7] = system: Staphylococcus aureus ATCC 25293
[8] = system: Escherichia coli 363 ATCC 11775
[9] = system: Bacillus megaterium ATCC 17749
[10] = system: Vibrio alginolyticus ATCC 17749
[11] = system: Staphylococcus epidermidis ATCC 12228
Fusarium oxysporum = system: Fusarium oxysporum
[12] = system: Micrococcus luteus ATCC 4698
[13] = system: Proteus mirabilis ATCC 25933
[14] = system: Salmonella enterica subsp. enterica serovar Typhimurium ATCC 14028
[15] = system: Bacillus subtilis KCTC 1021
[16] = system: Escherichia coli DH5alpha
Serratia marcescens = system: Serratia marcescens
Escherichia coli = system: Escherichia coli
[17] = system: Klebsiella pneumoniae ATCC 10031
[18] = system: Shigella dysenteriae ATCC 9752
Saccharomyces cerevisiae = system: Saccharomyces cerevisiae
Candida albicans = system: Candida albicans
[19] = system: Pseudomonas aeruginosa ATCC 9027
Pseudomonas putida = system: Pseudomonas putida
[20] = system: Escherichia coli BCRC 10675
[21] = system: Listeria monocytogenes BCRC 14845
[22] = system: Vibrio anguillarum serotype O1
[23] = system: Vibrio alginolyticus BCRC 12829
[24] = system: Yersinia enterocolitica BCRC 13999
[25] = system: Vibrio parahaemolyticus BCRC 10806
[26] = system: Klebsiella aerogenes BCRC 10370
Vibrio harveyi = system: Vibrio harveyi
Vibrio parahaemolyticus = system: Vibrio parahaemolyticus
Vibrio alginolyticus = system: Vibrio alginolyticus
[27] = system: Staphylococcus aureus BCRC 10781
[28] = system: Pseudomonas aeruginosa BCRC 10944
Streptococcus iniae = system: Streptococcus iniae
[29] = system: Streptococcus equinus BCRC 14729
[30] = system: Enterobacter cloacae BCRC 10401
[31] = system: Staphylococcus aureus BCRC 10780
[32] = system: Staphylococcus xylosus BCRC 12930
[33] = system: Klebsiella oxytoca BCRC 13985
Lactococcus garvieae = system: Lactococcus garvieae
[34] = system: Escherichia coli NCTC 12923
Escherichia coli LEC001 = system: Escherichia coli LEC001
[35] = system: Pseudomonas aeruginosa PAO1
[36] = system: Pseudomonas aeruginosa NCTC 13437
[37] = system: Staphylococcus aureus USA 300
[38] = system: Klebsiella pneumoniae NCTC 13368
[39] = system: Acinetobacter baumannii ATCC 17978
[40] = system: Acinetobacter baumannii AYE
[41] = system: Staphylococcus aureus ATCC 9144

**Q.** For `CC[C@H](C)[C@H](NC(=O)[C@H](C)NC(=O)[C@H](CC(C)C)NC(=O)[C@H](Cc1ccc(O)cc1)NC(=O)[C@H](CC(C)C)NC(=O)[C@H](C)N)C(=O)N[C@@H](CCCN=C(N)N)C(=O)N[C@@H](CCCN=C(N)N)C(=O)N[C@@H](CCCN=C(N)N)C(N)=O` [ALYLAIRRR], which MIC (Staphylococcus aureus) is on record?
**A.** 21.2 µM (≈ 24 µg/mL)

**Q.** And the MIC [1]?
**A.** ≥ 125 µM

**Q.** What about the MIC [2] of the same molecule?
**A.** ≥ 530 µM

**Q.** And the MIC (Escherichia coli JM109)?
**A.** 2.65 µM (≈ 3 µg/mL)

**Q.** What about the MIC [3] of the same molecule?
**A.** ≥ 53 µM

**Q.** What about the MIC [4] of the same molecule?
**A.** 1.33 µM (≈ 1.5 µg/mL)

**Q.** And the MIC (Pseudomonas aeruginosa)?
**A.** 354 µM (≈ 400 µg/mL)

**Q.** What does the source list for `CC(C)C[C@@H]1NC(=O)[C@H](CCCN=C(N)N)NC(=O)[C@H](Cc2cnc[nH]2)NC(=O)[C@H](Cc2c[nH]c3ccccc23)NC(=O)CNC(=O)CNC(=O)[C@@H](N)CSSC[C@@H](C(=O)O)NC(=O)[C@H](CCCN=C(N)N)NC1=O` [CGGWHRLRC]?
**A.** MIC [5]: ≥ 75 µM; MIC [6]: ≥ 75 µM; MIC (Candida sp.): ≥ 59 µM; MIC [7]: ≥ 49 µM; MIC [8]: ≥ 75 µM; MIC [9]: ≥ 51 µM; MIC [10]: ≥ 75 µM; MIC [11]: 43 µM (≈ 46.7 µg/mL); MIC (Fusarium oxysporum): 30 µM (≈ 32.6 µg/mL); MIC [12]: 28 µM (≈ 30.4 µg/mL)

**Q.** For `CC[C@H](C)[C@@H]1NC(=O)[C@H](CCCCN)NC(=O)[C@@H](NC(=O)[C@@H](NC(=O)[C@@H](NC(=O)[C@@H](NC(=O)[C@@H]2CCCN2C(=O)[C@H](CC(C)C)NC(=O)[C@H](Cc2ccccc2)NC(=O)[C@H](CC(N)=O)NC(=O)[C@H](C)NC(=O)[C@H](C)NC(=O)[C@H](CC(C)C)NC(=O)CNC(=O)[C@H](C)NC(=O)[C@H](CC(C)C)NC(=O)[C@H](CC(C)C)NC(=O)[C@@H]2CCCN2C(=O)[C@H](CC(C)C)NC(=O)[C@@H](N)Cc2ccccc2)[C@@H](C)O)[C@@H](C)CC)[C@@H](C)CC)CSSC[C@@H](C(=O)O)NC(=O)[C@H](CCCCN)NC(=O)[C@H](Cc2ccc(O)cc2)NC(=O)[C@H](CO)NC1=O` [FLPLLAGLAANFLPTIICKISYKC], which MIC [13] is on record?
**A.** ≥ 76.6 µM

**Q.** What about the MIC [14] of the same molecule?
**A.** 19.2 µM (≈ 50 µg/mL)

**Q.** What about the MIC [15] of the same molecule?
**A.** 3.83 µM (≈ 9.99 µg/mL)

**Q.** And the MIC [16]?
**A.** 9.58 µM (≈ 25 µg/mL)

**Q.** What about the MIC (Serratia marcescens) of the same molecule?
**A.** ≥ 76.6 µM

**Q.** And the MIC (Escherichia coli)?
**A.** 38.3 µM (≈ 99.9 µg/mL)

**Q.** What about the MIC [17] of the same molecule?
**A.** 9.58 µM (≈ 25 µg/mL)

**Q.** What about the MIC [18] of the same molecule?
**A.** 19.2 µM (≈ 50 µg/mL)

**Q.** And the MIC (Saccharomyces cerevisiae)?
**A.** 19.2 µM (≈ 50 µg/mL)

**Q.** What about the MIC [11] of the same molecule?
**A.** 3.83 µM (≈ 9.99 µg/mL)

**Q.** What about the MIC (Candida albicans) of the same molecule?
**A.** 19.2 µM (≈ 50 µg/mL)

**Q.** And the MIC [12]?
**A.** 0.958 µM (≈ 2.5 µg/mL)

**Q.** And the MIC [19]?
**A.** 57.5 µM (≈ 150 µg/mL)

**Q.** What about the MIC (Pseudomonas putida) of the same molecule?
**A.** ≥ 57.5 µM

**Q.** Which results are given for `CC[C@H](C)[C@H](NC(=O)[C@H](Cc1ccc(O)cc1)NC(=O)[C@H](CCCCN)NC(=O)[C@H](Cc1ccc(O)cc1)NC(=O)[C@H](Cc1ccccc1)NC(=O)[C@H](CC(N)=O)NC(=O)[C@H](Cc1ccc(O)cc1)NC(=O)[C@@H](NC(=O)[C@H](Cc1ccc(O)cc1)NC(=O)[C@H](CCCCN)NC(=O)[C@H](C)NC(=O)[C@H](Cc1ccc(O)cc1)NC(=O)[C@H](CCCCN)NC(=O)[C@H](C)NC(=O)CN)[C@@H](C)CC)C(=O)N[C@@H](C)C(=O)N[C@@H](CCCCN)C(=O)N[C@@H](Cc1ccc(O)cc1)C(=O)N[C@H](C(=O)N[C@@H](Cc1c[nH]c2ccccc12)C(=O)O)[C@@H](C)CC` [GAKYAKYIYNFYKYIAKYIW]?
**A.** MIC [20]: 24.9 µM (≈ 64 µg/mL); MIC [21]: ≥ 49.9 µM; MIC [22]: ≥ 49.9 µM; MIC [23]: 24.9 µM (≈ 64 µg/mL); MIC [24]: ≥ 99.7 µM; MIC [25]: 24.9 µM (≈ 64 µg/mL); MIC [26]: 24.9 µM (≈ 64 µg/mL); MIC (Vibrio harveyi): 24.9 µM (≈ 64 µg/mL); MIC (Vibrio parahaemolyticus): 24.9 µM (≈ 64 µg/mL); MIC (Vibrio alginolyticus): 24.9 µM (≈ 64 µg/mL); MIC [27]: ≥ 49.9 µM; MIC [28]: 24.9 µM (≈ 64 µg/mL); MIC (Streptococcus iniae): ≥ 49.9 µM; MIC [29]: ≥ 49.9 µM; MIC [30]: 24.9 µM (≈ 64 µg/mL); MIC [31]: ≥ 49.9 µM; MIC [32]: 24.9 µM (≈ 64 µg/mL); MIC [33]: ≥ 49.9 µM; MIC (Lactococcus garvieae): ≥ 99.7 µM

**Q.** How did the MIC [34] turn out when `CC[C@H](C)[C@H](NC(=O)CNC(=O)[C@H](CO)NC(=O)[C@@H](N)Cc1c[nH]c2ccccc12)C(=O)N[C@@H](CCCN=C(N)N)C(=O)NCC(=O)N[C@@H](Cc1ccc(O)cc1)C(=O)N[C@@H](CCCCN)C(=O)NCC(=O)NCC(=O)N[C@@H](Cc1ccc(O)cc1)C(=O)N[C@@H](CCCCN)C(=O)NCC(=O)N[C@@H](CC(C)C)C(=O)N[C@@H](Cc1ccccc1)C(=O)N[C@@H](CCCCN)C(=O)N[C@@H](CCC(N)=O)C(=O)N[C@H](C(=O)N[C@@H](CC(N)=O)C(=O)N[C@@H](Cc1ccc(O)cc1)C(N)=O)[C@@H](C)O` [WSGIRGYKGGYKGLFKQTNY] was run?
**A.** ≥ 55.1 µM

**Q.** What about the MIC (Escherichia coli LEC001) of the same molecule?
**A.** ≥ 55.1 µM

**Q.** What about the MIC [35] of the same molecule?
**A.** > 55.1 µM

**Q.** What about the MIC [36] of the same molecule?
**A.** ≥ 55.1 µM

**Q.** What about the MIC [37] of the same molecule?
**A.** ≥ 55.1 µM

**Q.** And the MIC [38]?
**A.** ≥ 55.1 µM

**Q.** What about the MIC [39] of the same molecule?
**A.** ≥ 55.1 µM

**Q.** What about the MIC [40] of the same molecule?
**A.** ≥ 55.1 µM

**Q.** And the MIC [41]?
**A.** ≥ 55.1 µM
